The subject of this assay is KB. The assay is described as follows: Cytotoxicity against human KB cells. It is filed as functional, cell-based.

The structures appear in SMILES notation. Values after ≈ are worked out from the molar mass of the structure shown.

In turn, `O=C1CCC[C@@H]2C[C@H](C[C@](O)(/C=C/c3ccccc3)O2)c2c(cc(O)c(C(=O)/C=C/c3ccccc3)c2O)O1` [KURZICHALCOLACTONE] yielded an IC50 of 15 µg/mL (≈ 28.5 µM).
With `O=C1CCC[C@@H]2C[C@H](C[C@](O)(/C=C/c3ccccc3)O2)c2c(cc(O)c3c2O[C@H](c2ccccc2)CC3=O)O1` [KURZIFLAVOLACTONE B] the figure was 4 µg/mL (≈ 7.6 µM).

These data come from ChEMBL document CHEMBL1148182, “Flavonone and chalcone derivatives from Cryptocarya kurzii” (J Nat Prod, 1993).
